# Reference: patent publication US20240109865A1, “INDAZOLE COMPOUNDS AS KINASE INHIBITORS” (TYRA BIOSCIENCES, INC., priority 2020, published 2024)
# Legend:
# Experiment in all cases: Kinase assay, binding constants (Kd), kinase-tagged T7 phage, qPCR
# FGFR3 (V555M) = FGFR3 (V555M) (Homo sapiens (Human), UniProt P22607, V555M); details: V555M mutant
# Summary of the method: (§1)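 Kinase-tagged T7 phage (grown in BL21-derived E. coli) competed with test compound for immobilized biotinylated ligand on streptavidin beads. Kds came from an 11-point 3-fold dilution series at 0.9% final DMSO. Bound kinase was eluted with non-biotinylated ligand and quantified by qPCR, with Hill slope fixed at −1.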
# FGFR4 = FGFR4 (Homo sapiens (Human), UniProt P22455)
# Sequence of FGFR4 (P22455 22-802): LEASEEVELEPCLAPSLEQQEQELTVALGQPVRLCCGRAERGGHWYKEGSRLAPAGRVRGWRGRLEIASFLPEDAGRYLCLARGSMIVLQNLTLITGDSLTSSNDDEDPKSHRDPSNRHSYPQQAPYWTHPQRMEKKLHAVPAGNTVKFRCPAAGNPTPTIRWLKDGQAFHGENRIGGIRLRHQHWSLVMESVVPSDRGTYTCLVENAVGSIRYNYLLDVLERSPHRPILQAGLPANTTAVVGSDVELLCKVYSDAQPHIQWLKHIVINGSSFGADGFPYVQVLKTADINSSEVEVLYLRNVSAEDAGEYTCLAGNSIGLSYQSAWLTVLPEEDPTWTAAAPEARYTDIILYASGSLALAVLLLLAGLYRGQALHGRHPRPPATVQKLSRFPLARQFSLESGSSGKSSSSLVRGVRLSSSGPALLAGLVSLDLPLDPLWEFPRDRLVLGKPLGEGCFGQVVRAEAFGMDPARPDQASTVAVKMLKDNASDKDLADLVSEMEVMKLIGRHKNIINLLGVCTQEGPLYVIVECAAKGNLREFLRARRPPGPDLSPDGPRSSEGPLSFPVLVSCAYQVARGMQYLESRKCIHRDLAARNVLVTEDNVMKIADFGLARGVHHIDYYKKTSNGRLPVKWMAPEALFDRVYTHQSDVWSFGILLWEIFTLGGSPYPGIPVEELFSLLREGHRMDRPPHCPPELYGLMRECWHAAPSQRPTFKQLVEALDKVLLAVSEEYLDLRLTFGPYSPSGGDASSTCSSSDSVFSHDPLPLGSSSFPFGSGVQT
# Summary of the method: as §1
# FGFR1 = FGFR1 (Homo sapiens (Human), UniProt P11362)
# Sequence of FGFR1 (P11362 22-822): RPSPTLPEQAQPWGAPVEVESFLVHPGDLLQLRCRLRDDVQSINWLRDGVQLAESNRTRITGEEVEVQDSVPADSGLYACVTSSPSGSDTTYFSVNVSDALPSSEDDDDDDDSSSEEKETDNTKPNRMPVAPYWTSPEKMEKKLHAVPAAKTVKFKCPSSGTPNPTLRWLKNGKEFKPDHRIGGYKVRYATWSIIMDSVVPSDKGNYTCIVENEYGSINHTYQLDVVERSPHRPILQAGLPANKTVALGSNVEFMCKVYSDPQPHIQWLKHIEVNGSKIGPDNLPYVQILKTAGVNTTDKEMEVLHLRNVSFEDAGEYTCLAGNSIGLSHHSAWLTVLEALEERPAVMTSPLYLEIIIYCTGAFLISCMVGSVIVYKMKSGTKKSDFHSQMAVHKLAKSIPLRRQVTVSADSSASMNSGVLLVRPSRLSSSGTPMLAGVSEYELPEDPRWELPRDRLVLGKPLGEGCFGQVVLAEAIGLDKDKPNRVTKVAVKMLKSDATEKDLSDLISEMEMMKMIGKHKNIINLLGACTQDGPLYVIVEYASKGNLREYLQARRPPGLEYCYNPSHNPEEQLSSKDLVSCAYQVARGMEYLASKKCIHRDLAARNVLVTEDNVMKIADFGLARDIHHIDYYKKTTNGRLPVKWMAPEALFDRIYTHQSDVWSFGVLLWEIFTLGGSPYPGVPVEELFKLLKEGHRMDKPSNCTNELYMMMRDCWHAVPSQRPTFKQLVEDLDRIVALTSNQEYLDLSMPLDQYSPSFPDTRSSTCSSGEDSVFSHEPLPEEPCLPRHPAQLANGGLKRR
# Summary of the method: as §1
# FGFR3 = FGFR3 (Homo sapiens (Human), UniProt P22607)
# Sequence of FGFR3 (P22607 23-806): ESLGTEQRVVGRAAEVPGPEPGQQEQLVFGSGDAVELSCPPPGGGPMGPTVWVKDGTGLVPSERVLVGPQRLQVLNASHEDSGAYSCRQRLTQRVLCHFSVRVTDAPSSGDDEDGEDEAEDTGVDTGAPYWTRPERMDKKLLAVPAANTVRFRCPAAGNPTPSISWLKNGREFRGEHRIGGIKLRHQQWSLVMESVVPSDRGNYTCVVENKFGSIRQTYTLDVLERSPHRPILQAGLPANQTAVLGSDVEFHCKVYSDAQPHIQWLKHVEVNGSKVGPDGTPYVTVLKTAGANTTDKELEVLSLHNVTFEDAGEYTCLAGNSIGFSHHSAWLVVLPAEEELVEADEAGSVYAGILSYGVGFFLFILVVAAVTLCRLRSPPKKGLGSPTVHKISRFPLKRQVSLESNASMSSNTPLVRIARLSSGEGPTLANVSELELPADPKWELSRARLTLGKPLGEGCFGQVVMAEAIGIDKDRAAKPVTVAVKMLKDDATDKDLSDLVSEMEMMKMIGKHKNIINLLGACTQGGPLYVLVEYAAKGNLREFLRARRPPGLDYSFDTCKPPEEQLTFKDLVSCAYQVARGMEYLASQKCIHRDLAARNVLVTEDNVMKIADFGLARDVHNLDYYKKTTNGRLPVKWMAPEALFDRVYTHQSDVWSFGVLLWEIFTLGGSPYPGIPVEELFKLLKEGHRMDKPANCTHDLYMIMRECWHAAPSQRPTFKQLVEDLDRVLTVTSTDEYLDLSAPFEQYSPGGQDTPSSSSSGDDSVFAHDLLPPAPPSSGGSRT
# Summary of the method: as §1
# FGFR2 = FGFR2 (Homo sapiens (Human), UniProt P21802)
# Sequence of FGFR2 (P21802 22-821): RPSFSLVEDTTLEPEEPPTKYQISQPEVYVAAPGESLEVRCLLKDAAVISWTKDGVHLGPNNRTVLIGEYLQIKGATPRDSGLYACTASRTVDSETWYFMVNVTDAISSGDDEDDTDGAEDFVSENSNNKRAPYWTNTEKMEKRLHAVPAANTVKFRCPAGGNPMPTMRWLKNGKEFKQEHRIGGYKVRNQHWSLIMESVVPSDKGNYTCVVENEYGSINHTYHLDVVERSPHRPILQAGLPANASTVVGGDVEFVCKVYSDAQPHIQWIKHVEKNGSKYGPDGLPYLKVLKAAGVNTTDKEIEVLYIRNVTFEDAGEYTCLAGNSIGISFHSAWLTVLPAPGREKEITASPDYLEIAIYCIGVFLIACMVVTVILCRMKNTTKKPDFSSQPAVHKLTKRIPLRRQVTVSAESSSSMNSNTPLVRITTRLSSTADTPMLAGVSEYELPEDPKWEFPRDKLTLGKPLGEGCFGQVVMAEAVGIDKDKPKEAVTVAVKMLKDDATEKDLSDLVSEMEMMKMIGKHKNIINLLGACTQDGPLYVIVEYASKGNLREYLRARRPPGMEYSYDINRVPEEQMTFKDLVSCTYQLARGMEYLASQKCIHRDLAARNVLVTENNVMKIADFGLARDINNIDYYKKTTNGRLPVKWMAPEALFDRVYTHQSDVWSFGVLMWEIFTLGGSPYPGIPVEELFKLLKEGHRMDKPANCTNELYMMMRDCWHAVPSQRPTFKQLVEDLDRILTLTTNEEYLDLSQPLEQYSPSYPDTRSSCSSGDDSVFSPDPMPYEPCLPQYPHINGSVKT
# Summary of the method: as §1
# Sequence of FGFR3 (V555M) (P22607 23-806 V555M): as the sequence (P22607 23-806) above, with V533M counted along it
SMILES,Kd (FGFR3 (V555M)),Kd (FGFR4),Kd (FGFR1),Kd (FGFR3),Kd (FGFR2)
"C[C@@H](Oc1ccc2[nH]nc(-c3cnc(N4CC[C@@H](O)C4)c(C#N)c3)c2c1)c1c(Cl)cnc(F)c1Cl [Example 284, 5-(5-((R)-1-(3,5-dichloro-2-fluoropyridin-4-yl)ethoxy)-1H-indazol-3-yl)-2-((R)-3-hydroxypyrrolidin-1-yl)nicotinonitrile]",20 to 100 nM,20 to 100 nM,> 300 nM,100 to 300 nM,> 300 nM
"C[C@@H](Oc1ccc2[nH]nc(-c3cnc(N4CCCC4)c(C#N)c3)c2c1)c1c(Cl)cncc1Cl [Example 285, 5-[5-[(1R)-1-(3,5-dichloro-4-pyridyl)ethoxy]-1H-indazol-3-yl]-2-pyrrolidin-1-yl-pyridine-3-carbonitrile]",20 to 100 nM,1 to 20 nM,> 300 nM,100 to 300 nM,> 300 nM
"C[C@@H](Oc1ccc2[nH]nc(-c3cnc(N4CCC4)c(C#N)c3)c2c1)c1c(Cl)cnc(F)c1Cl [Example 286, (R)-2-(azetidin-1-yl)-5-(5-(1-(3,5-dichloro-2-fluoropyridin-4-yl)ethoxy)-1H-indazol-3-yl)nicotinonitrile]",> 300 nM,100 to 300 nM,> 300 nM,> 300 nM,> 300 nM
"C[C@@H](Oc1ccc2[nH]nc(-c3cnc(N4CC(O)C4)c(C#N)c3)c2c1)c1c(Cl)cnc(F)c1Cl [Example 287, (R)-5-(5-(1-(3,5-dichloro-2-fluoropyridin-4-yl)ethoxy)-1H-indazol-3-yl)-2-(3-hydroxyazetidin-1-yl)nicotinonitrile]",100 to 300 nM,20 to 100 nM,> 300 nM,100 to 300 nM,> 300 nM
"C[C@@H](Oc1ccc2[nH]nc(-c3cnc(N4CC[C@H](O)C4)c(C#N)c3)c2c1)c1c(Cl)cnc(F)c1Cl [Example 288, 5-(5-((R)-1-(3,5-dichloro-2-fluoropyridin-4-yl)ethoxy)-1H-indazol-3-yl)-2-((S)-3-hydroxypyrrolidin-1-yl)nicotinonitrile]",20 to 100 nM,1 to 20 nM,> 300 nM,20 to 100 nM,> 300 nM
"C[C@H](Oc1ccc2[nH]nc(-c3cnc(N4CC(O)C4)c(C#N)c3)c2c1)c1c(Cl)cnc(F)c1Cl [Example 291, (S)-5-(5-(1-(3,5-dichloro-2-fluoropyridin-4-yl)ethoxy)-1H-indazol-3-yl)-2-(3-hydroxyazetidin-1-yl)nicotinonitrile]",> 300 nM,> 300 nM,> 300 nM,> 300 nM,> 300 nM
"C[C@@H](Oc1ccc2[nH]nc(-c3cnc(N4CCCC4)c(C#N)c3)c2c1)c1c(Cl)cnc(F)c1Cl [Example 292, (R)-5-(5-(1-(3,5-dichloro-2-fluoropyridin-4-yl)ethoxy)-1H-indazol-3-yl)-2-(pyrrolidin-1-yl)nicotinonitrile]",> 300 nM,100 to 300 nM,> 300 nM,> 300 nM,> 300 nM
"C[C@@H](Oc1ccc2[nH]nc(-c3cnc(N4CC[C@H](O)C4)c(C#N)c3)c2c1)c1c(Cl)cncc1Cl [Example 293, 5-[5-[(1R)-1-(3,5-dichloro-4-pyridyl)ethoxy]-1H-indazol-3-yl]-2-[(3S)-3-hydroxypyrrolidin-1-yl]pyridine-3-carbonitrile]",1 to 20 nM,1 to 20 nM,20 to 100 nM,1 to 20 nM,20 to 100 nM
"C[C@@H](Oc1ccc2[nH]nc(-c3cnc(N4CC[C@@H](C(C)(C)O)C4)c(C#N)c3)c2c1)c1c(Cl)cncc1Cl [Example 294, 5-[5-[(1R)-1-(3,5-dichloro-4-pyridyl)ethoxy]-1H-indazol-3-yl]-2-[(3R)-3-(1-hydroxy-1-methyl-ethyl)pyrrolidin-1-yl]pyridine-3-carbonitrile]",20 to 100 nM,20 to 100 nM,> 300 nM,100 to 300 nM,> 300 nM
"Cc1ncc(Cl)c([C@@H](C)Oc2ccc3[nH]nc(-c4cnc(N5CC(CC(F)(F)F)C5)c(C#N)c4)c3c2)c1Cl [Example 295, 5-[5-[(1R)-1-(3,5-dichloro-2-methyl-4-pyridyl)ethoxy]-1H-indazol-3-yl]-2-[3-(2,2,2-trifluoroethyl)azetidin-1-yl]pyridine-3-carbonitrile]",100 to 300 nM,20 to 100 nM,> 300 nM,> 300 nM,> 300 nM
"C[C@@H](Oc1ccc2[nH]nc(-c3cnc(N4CC(CC(F)(F)F)C4)c(C#N)c3)c2c1)c1c(Cl)cncc1Cl [Example 296, 5-[5-[(1R)-1-(3,5-dichloro-4-pyridyl)ethoxy]-1H-indazol-3-yl]-2-[3-(2,2,2-trifluoroethyl)azetidin-1-yl]pyridine-3-carbonitrile]",100 to 300 nM,20 to 100 nM,> 300 nM,> 300 nM,> 300 nM
"C[C@@H](Oc1ccc2[nH]nc(-c3cnc(N4CC[C@@H](O)C4)c(C#N)c3)c2c1)c1c(Cl)cncc1Cl [Example 297, 5-[5-[(1R)-1-(3,5-dichloro-4-pyridyl)ethoxy]-1H-indazol-3-yl]-2-[(3R)-3-hydroxypyrrolidin-1-yl]pyridine-3-carbonitrile]",1 to 20 nM,1 to 20 nM,20 to 100 nM,1 to 20 nM,100 to 300 nM
"Cc1cnnc(C)c1[C@@H](C)Oc1ccc2[nH]nc(-c3cnc(N4CC5CC(C4)N5)c(C#N)c3)c2c1 [Example 299, 2-(3,6-diazabicyclo[3.1.1]heptan-3-yl)-5-(5-((R)-1-(3,5-dimethylpyridazin-4-yl)ethoxy)-1H-indazol-3-yl)nicotinonitrile]",1 to 20 nM,1 to 20 nM,20 to 100 nM,1 to 20 nM,20 to 100 nM
"COc1cc(-c2n[nH]c3ccc(O[C@H](C)c4c(C)cnnc4C)cc23)cnc1N1CC2CC(C1)N2 [Example 300, 3-(5-(5-((R)-1-(3,5-dimethylpyridazin-4-yl)ethoxy)-1H-indazol-3-yl)-3-methoxypyridin-2-yl)-3,6-diazabicyclo[3.1.1]heptane]",20 to 100 nM,20 to 100 nM,100 to 300 nM,20 to 100 nM,100 to 300 nM

# The next lines start with the values.
Kd (FGFR3 (V555M)),Kd (FGFR4),Kd (FGFR1),Kd (FGFR3),Kd (FGFR2),SMILES
1 to 20 nM,1 to 20 nM,20 to 100 nM,1 to 20 nM,20 to 100 nM,"C[C@@H](Oc1ccc2[nH]nc(-c3cnc(N4CCC(O)CC4)c(C#N)c3)c2c1)c1c(Cl)cncc1Cl [Example 298, 5-[5-[(1R)-1-(3,5-dichloro-4-pyridyl)ethoxy]-1H-indazol-3-yl]-2-(4-hydroxy-1-piperidyl)pyridine-3-carbonitrile]"
1 to 20 nM,1 to 20 nM,100 to 300 nM,20 to 100 nM,100 to 300 nM,"Cc1cnnc(C)c1[C@@H](C)Oc1ccc2[nH]nc(-c3cnc(N4CC[C@H](C(C)(C)O)C4)c(C#N)c3)c2c1 [Example 301, 5-(5-((R)-1-(3,5-dimethylpyridazin-4-yl)ethoxy)-1H-indazol-3-yl)-2-((S)-3-(2-hydroxypropan-2-yl)pyrrolidin-1-yl)nicotinonitrile]"
1 to 20 nM,1 to 20 nM,100 to 300 nM,20 to 100 nM,100 to 300 nM,"C[C@@H](Oc1ccc2[nH]nc(-c3cnc(N4CC(O)C4)c(C#N)c3)c2c1)c1c(Cl)cncc1Cl [Example 302, 5-[5-[(1R)-1-(3,5-dichloro-4-pyridyl)ethoxy]-1H-indazol-3-yl]-2-(3-hydroxyazetidin-1-yl)pyridine-3-carbonitrile]"
1 to 20 nM,1 to 20 nM,20 to 100 nM,1 to 20 nM,20 to 100 nM,"C[C@@H](Oc1ccc2[nH]nc(-c3cnc(N4CCC(C(C)(C)O)CC4)c(C#N)c3)c2c1)c1c(Cl)cncc1Cl [Example 303, 5-[5-[(1R)-1-(3,5-dichloro-4-pyridyl)ethoxy]-1H-indazol-3-yl]-2-[4-(1-hydroxy-1-methyl-ethyl)-1-piperidyl]pyridine-3-carbonitrile]"
20 to 100 nM,1 to 20 nM,> 300 nM,100 to 300 nM,> 300 nM,"COc1cc(-c2n[nH]c3ccc(O[C@H](C)c4c(C)cnnc4C)cc23)cnc1N1CCC1 [Example 304, (R)-3-(6-(azetidin-1-yl)-5-methoxypyridin-3-yl)-5-(1-(3,5-dimethylpyridazin-4-yl)ethoxy)-1H-indazole]"
100 to 300 nM,20 to 100 nM,> 300 nM,> 300 nM,> 300 nM,"COc1cc(-c2n[nH]c3ccc(O[C@H](C)c4c(C)cnnc4C)cc23)cnc1N1CCCC1 [Example 305, (R)-5-(1-(3,5-dimethylpyridazin-4-yl)ethoxy)-3-(5-methoxy-6-(pyrrolidin-1-yl)pyridin-3-yl)-1H-indazole]"
1 to 20 nM,1 to 20 nM,100 to 300 nM,20 to 100 nM,20 to 100 nM,"Cc1cnnc(C)c1[C@@H](C)Oc1ccc2[nH]nc(-c3cnc(N4CC[C@H](O)C4)c(C#N)c3)c2c1 [Example 306, 5-(5-((R)-1-(3,5-dimethylpyridazin-4-yl)ethoxy)-1H-indazol-3-yl)-2-((S)-3-hydroxypyrrolidin-1-yl)nicotinonitrile]"
1 to 20 nM,1 to 20 nM,100 to 300 nM,20 to 100 nM,20 to 100 nM,"Cc1cnnc(C)c1[C@@H](C)Oc1ccc2[nH]nc(-c3cnc(N4CC[C@@H](C(C)(C)O)C4)c(C#N)c3)c2c1 [Example 307, 5-(5-((R)-1-(3,5-dimethylpyridazin-4-yl)ethoxy)-1H-indazol-3-yl)-2-((R)-3-(2-hydroxypropan-2-yl)pyrrolidin-1-yl)nicotinonitrile]"
